Reference: patent US5635518A, “N-substituted azaheterocyclic carboxylic acids and esters thereof” (Novo Nordisk A/S, priority 1993, dated 1997)
Where a name gives a salt, the structure may show the parent alone.

test system: GABA uptake; experiment: not given; conditions: oral; Yunger, L. M. et al., J. Pharm. Exp. Ther. 1984, 228, 109; cited from earlier work

Compound	orally active inhibitor of GABA uptake
O=C(O)C1CCCN(CCC=C(c2ccccc2)c2ccccc2)C1 (stereo not shown) [SK&F 89976A, N-(4,4-diphenyl-3-buten-1-yl)nipecotic acid]	orally active inhibitors of GABA uptake
O=C(O)C1=CCCN(CCC=C(c2ccccc2)c2ccccc2)C1 [SK&F 100330A, N-(4,4-diphenyl-3-buten-1-yl)guvacine]	orally active inhibitors of GABA uptake
O=C(O)CC1CCN(CCC=C(c2ccccc2)c2ccccc2)C1 (stereo not drawn) [SK&F 100561, N-(4,4-diphenyl-3-buten-1-yl)-homo-β-proline]	orally active inhibitors of GABA uptake
O=C(O)C1CCCN(CCC=C(c2ccccc2)c2cccs2)C1 (stereo not shown) [SK&F 100604J, N-(4-phenyl-4-(2-thienyl)-3-buten-1-yl)nipecotic acid]	orally active inhibitors of GABA uptake

test system: [^3 H]-GABA uptake; experiment: in vitro inhibition of [3H]-GABA uptake, rat cortical tissue homogenate (method of Fjalland); format: biochemical, Male wistar rat; conditions: 40 mM tris HCl pH 7.5, 60 minutes at 30° C.
Protocol: Values for in vitro inhibition of [^3 H]-GABA uptake for the invention compounds were assessed essentially by the method of Fjalland (Acta Pharmacol. Toxicol. 1978, 42, 73-76). Male wistar rat cortical tissue was gently homogenized by hand using a glass/PTFE homogenizer in 10 volumes of 0.32M sucrose. Incubation was performed in a 40 mM tris HCl buffer (pH 7.5 at 30° C.) containing […], 4 mM MgSO4, […] and 10 mM glucose, for 60 minutes at 30° C. Values for inhibition of GABA uptake for some representative compounds are recorded in Table I.

IC50 [µM]	Compound
64	O=C(O)[C@@H]1CCCN(CCOc2ccccc2)C1 [Example 1, (R)-1-(2-Phenoxyethyl)-3-piperidinecarboxylic acid hydrochloride]
24	O=C(O)[C@@H]1CCCN(CCCCOc2ccccc2)C1 [Example 2, (R)-1-(4-Phenoxy-1-butyl)-3-piperidinecarboxylic acid hydrochloride]
6.7	O=C(O)[C@@H]1CCCN(CCOc2ccccc2Cc2ccccc2)C1 [Example 3, (R)-1-(2-(2-Benzylphenoxy)ethyl)-3-piperidinecarboxylic acid hydrochloride]
5.6	O=C(O)[C@@H]1CCCN(CCOc2cccc(-c3ccccc3)c2)C1 [Example 4, (R)-1-(2-(3-Phenylphenoxy)ethyl)-3-piperidinecarboxylic acid hydrochloride]
5.6	O=C(O)[C@@H]1CCCN(CCOc2ccccc2-c2ccccc2)C1 [Example 5, (R)-1-(2-(2-Phenylphenoxy)ethyl)-3-piperidinecarboxylic acid hydrochloride]

test system: GABA uptake; experiment: not given; conditions: from the synaptic cleft into presynaptic nerve terminals and glial cells; cited from earlier work

Compound	inhibitor of GABA uptake
O=C(O)C1CCCNC1 (stereo not shown) [3-piperidine-carboxylic acid]	well-known and potent inhibitor of GABA uptake
